Reference: patent publication US5563121A, “Peptide linkage unit” (priority 1994, dated 1996)
*1 amine or outer side, *2 acyl side, *3 side chain or, on linkers, in order; H or OH if unused. Where a SMILES comes first, the peptide text is derived from it. [ ]: non-standard residue; d: D form. X1 = O=C([C@@H]1CCCN1CP(=O)(O)C(Cc1ccccc1)N[*:1])[*:2]

Target: T1, Synthetic HIV-1 proteinase (Human immunodeficiency virus type 1 group M subtype B, UniProt P03369)
T1 construct: Synthetic HIV-1 proteinase; made in house; host or cells: chemical synthesis (no expression host); gift of Dr. Stephen Kent, The Scripps Research Institute
Assay: HPLC assay of HIV-1 PR inhibition
Format: biochemical
Details: HIV substrate IV, pH 6.2, 25° C.
Experimental: Typical reactions were carried out at room temperature (25° C.) in 150 μl total volumes of 100 mM MES buffer, pH 6.2, containing 1 mM ethylenediaminetetra-acetic acid (EDTA) and 2 mM dithiothreitol (DTT) plus 0.1 percent (v/v) Triton X-100.
Synthetic HIV-1 proteinase [0.5 μg, obtained from Dr. Stephen Kent of The Scripps Research Institute; see Cell, 54:363-368 (July 29, 1988)] was first incubated in buffer with (or without) various concentrations of "inhibitor(s)" for 30 minutes at 25° C. The proteinase reaction was then initiated by the addition of HIV substrate IV (Bachem Bioscience Inc.) at fixed concentrations. HIV Substrate IV has the sequence
Lys-Ala-Arg-Val-Nle-p-NO2 Phe-Glu-Ala-Nle-NH2 (SEQ ID NO: 32).
At three appropriate times (normally 15, 30 and 45 minutes) the hydrolysis was stopped by adding a 40 μl aliquot from the reaction to 40 μl of a prepared quench solution. The quench solution was 1:4 acetonitrile:water (3 percent trifluoroacetic acid; TFA) and contained 150 μM m-toluic acid which served as an HPLC standard. […] Reaction progress was monitored by following the increasing absorbance (peak height) of the substrate IV cleavage product detected at […].

In the case of `CC[C@H](C)[C@H](NC(=O)[C@@H]1CCCN1CP(=O)(O)C(Cc1ccccc1)NC(=O)[C@H](CC(N)=O)NC(=O)[C@H](CC(C)C)NC(=O)[C@H](CO)NC(C)=O)C(=O)N[C@H](C(=O)OC)C(C)C` (stereo partly drawn) [Compound 6, CH3 C(O)-Ser-Leu-Asn-Phe.psi.[PO2^- CH2 NH^+ ]Pro-Ile-Val-OCH3] (Ac-SLN[X1]IV-OMe), the Ki (one stereoisomer of Compound 6) is reported as roughly 600 µM and the Ki (the other (more active) isomer of Compound 6) is reported as roughly 0.01 µM.
